Patent publication US20200316087A1, “NOVEL COMBINATION THERAPY FOR ANXIETY DISORDERS, EPILEPSY, AND PAIN” (priority 2017, published 2020)

Key:
PTZ-induced clonus = assay: Pentylenetetrazole (PTZ, 35 mg/kg s.c.)-induced clonic convulsions; assay type: in vivo
Description: After the inverted screen test, the rats were dosed with pentylenetetrazole (PTZ)(35 mg/kg, s.c.) in a volume of 1 ml/kg and placed in an observation cage (40.6×20.3×15.2 cm) with a floor containing […] of wood chip bedding material. PTZ dose was determined to be ˜EC97 for producing clonic convulsions.

[1] = test system: immobility in forced-swim test; assay: Forced-swim assay; assay type: in vivo, mice; conditions: diazepam 22 mg/kg p.o. alone, mice
Description: Male NIH Swiss mice (Envigo, Indianapolis, Ind.) were studied. Mice were placed in clear plastic cylinders (diameter: 10 cm; height: 25 cm) filled with 6 cm of water (22-25° C.) for six min. […] The duration of immobility during the last four min of the six min test period was scored. A mouse was recorded as immobile when floating motionless or making only those movements necessary to keep its head above water.

[2] = test system: motor performance on inverted screen
Description: Without prior pretraining, mice were placed on an 11 cm×14 cm square of round hole, perforated stainless steel mesh (18 holes/square inch, 3/16 inch diameter, ¼ inch staggered centers, 50% open area) mounted on a metal rod, 35 cm above the table top. The screen was slowly inverted such that the mouse was on the underside of the screen. Mice were then scored for 60 sec as follows: 0=climbed to top of screen, 1=hung onto bottom of screen, 2=fell off. Data were analyzed by ANOVA followed by post-hoc Dunnett's test.
The test compounds were suspended in 1% hydroxyethylcellulose/0.05% Tween 80/0.05% Dow antifoam. […] Compounds were administered in a volume of 10 ml/kg and were given 30 min prior to testing via the i.p. route of administration; diazepam was dosed orally, 30 min prior to testing.

[3] = test system: electroshock-induced seizures; assay: Mouse electroshock-induced seizure model; assay type: in vivo; conditions: mice
Description: This assay detects effects of compounds that produce generalized seizures and those that dampen seizure spread. Male, CD1 mice (Taconic Farms) were studied at weights of 21-32 g. Mice=10/dose) were used with Wahlquist Model H stimulator with 0.2 sec stimulation with corneal electrodes. […] Mice were euthanized immediately following the test. Tonic extension was used as the primary endpoint.
For the in vivo assays, minimal effective doses (MED) were calculated in mg/kg. MED was defined as the lowest dose administered that produced statistically significant protection compared to vehicle control in the anticonvulsant assays. The MED, or minimal toxic dose (MTD) for motor impairment, was the minimal dose required to produce statistically-significant impairment in motor performance. Doses tested are shown in the figures and tables and are generally dosed in ½ log increments. The protective index (PT) was calculated at the MTD/MED.

[4] = test system: seizures in amygdala kindled rats; assay: Basolateral amygdala kindling; assay type: in vivo
Description: Seizure kindling models evaluate effects of drugs on the sensitization of the nervous system to seizure induction. In this test, drugs were evaluated for their ability to impact seizure parameters in rats that were fully kindled by daily electrical stimulation of their amygdala. Valproic acid was used as a positive control. Experiments were conducted using the general procedures of Zwart et al. (J. Pharmacol. Exp. Ther., 2014, 351:124-133). A bipolar electrode for electrical stimulation and EEG recording was stereotaxically implanted into one hemisphere of the basolateral amygdala (AP −2.2, ML −4.8, DV −8.5 mm, relative to bregma) of male Wistar rats. After post-operative recovery, electrical kindling begins, where a subthreshold constant current (400 μA, 1 ms, monophasic square-wave pulses, 60 Hz for 1 sec) is given once a day Monday-Friday for about 4-6 weeks until a rat is fully kindled. A fully kindled rat has experienced 10 consecutive stage 5 seizures or 10 of its last 12 were stage 5 according to the Racine Scale.
Twelve fully kindled rats were assigned to this study, and eight rats were selected and randomized to initial compound treatment groups from baseline after discharge threshold (ADT), seizure severity score, and after discharge duration (ADD). […] On test day, rats were dosed 30 min prior to beginning stimulation. After the pre-treatment, rats were stimulated using an ascending staircase sequence beginning at 10 μA and increasing in log unit steps of 10, 16, 25, 40, 65, 100, 160, 250, and 400 μA. Animals were stimulated until they were assigned a Seizure Severity Score for a visually observably seizure or they reached the 400 μA threshold limit. ADD was determined following testing. ADT was the current that induced a seizure; measurements were scale-adjusted to capture the stimulation scale change required to observe a seizure from the previous baseline to the ADT scored on test day. […] The average scale adjusted ADT was approximately 0.63 μA in vehicle treated rats.
Racine score of behavioral response to stimulation: 0=no behavioral response; 1=immobility, staring and/or facial clonus; 2=head nodding, jaw clonus, and/or tongue protrusion; 3=unilateral forelimb clonus; 4=bilateral forelimb clonus and/or rearing; 5=bilateral forelimb clonus with rearing and loss of balance.
After-Discharge Duration (ADD) is the duration of the first after-discharge.
ADT, ADD, and severity scores were analyzed by ANOVA. Seizure severity data was also analyzed by the nonparametric Skillings-Mack test, a generalization of the Friedman test for one-way repeated measures designs. Posthoc tests when reported were either by Dunnett's method (seizure severity) or using Wilcoxon sign rank tests (ADT and ADD). Valproic acid, used as a positive control was not used in ANOVA calculations.

PTZ seizure threshold = assay: Pentylenetetrazole (PTZ, i.v.)-induced seizure threshold; assay type: in vivo, rats
Description: Male […] Sprague-Dawley rats (Indianapolis, Ind.) were randomly assigned to treatment groups and dosed with vehicle (vehicle=1% carboxymethyl cellulose) with diazepam (0.1, 0.3, or 1 mg/kg) or test compound (3, 10, 30, or 60 mg/kg) 30 minutes prior to testing. Rats were placed in a restrainer and a winged infusion needle was inserted into the lateral tail vein. Intravenous infusion with 10 mg/ml PTZ at a rate of 0.5 ml/min was initiated until a clonic convulsion occurred, and the time to clonic convulsion was recorded in sec or a maximum of 4 min was recorded. Following infusion, rats are euthanized. The dose of PTZ required to elicit a clonic convulsion was calculated using the infusion rate, concentration of PTZ, time to clonic convulsion, and animal weight.

CN1C(=O)CN=C(c2ccccc2)c2cc(Cl)ccc21 [Diazepam, diazepam, reference compound]
PTZ Clonus to Criteria 1 (PTZ-induced clonus; MED producing maximal protection (0% seizures), rats): 10 mg/kg
potency relative to KRM-II-81 to induce full seizure protection (PTZ-induced clonus; PTZ-induced clonus, rats): 10 ×
convulsions (rats convulsing/tested) after PTZ (PTZ-induced clonus; diazepam 30 mg/kg p.o. + PTZ): 0/5
PTZ Clonus Potency (MED) (PTZ-induced clonus; lowest dose with statistically significant protection, rats, PTZ 35 mg/kg s.c.): 10 mg/kg
protection against PTZ-induced clonus (PTZ-induced clonus; rats, PTZ 35 mg/kg s.c.): fully prevented
antidepressant-like effect in forced-swim assay [1]: did not produce an antidepressant-like effect
motor impairment on inverted screen ([2]; diazepam 22 mg/kg p.o., mice): still significant but not maximal
motor impairment score on inverted screen test ([2]; diazepam 30 mg/kg p.o., prior data, out of 2.0): 1.8
potency relative to KRM-II-81 to induce full seizure protection ([3]; electroshock): 5 ×
Electroshock (minimal effective dose, MED) ([3]; lowest dose with statistically significant protection vs vehicle): 3 mg/kg
protection against electroshock-induced seizures [3]: fully prevented
After-Discharge Duration to Criteria ([4]; MED for producing after-discharge duration ≤30 sec): >10 mg/kg
After-Discharge Threshold to Criteria ([4]; MED for producing after-discharge threshold ≥3): >10 mg/kg
Seizure Severity to Criteria ([4]; MED for producing seizure severity score ≤2): 10 mg/kg
After-Discharge Duration Potency (MED) ([4]; amygdala kindled rats): >10 mg/kg
After-Discharge Threshold Potency (MED) ([4]; amygdala kindled rats): 10 mg/kg
Seizure Severity Poteny (MED) ([4]; amygdala kindled rats): 10 mg/kg
effect on adjusted after-discharge threshold (ADT) ([4]; amygdala kindled rats): significantly increased
effect on after-discharge duration (ADD) ([4]; amygdala kindled rats): trend for a significant effect
effect on seizure severity score / kindling measures ([4]; amygdala kindled rats): decreased significantly
Seizure free scores (seizure severity=0) ([4]; amygdala kindled rats, groups of 8): 2/8
PTZ Threshold to Criteria (PTZ seizure threshold; MED for producing ≥2× PTZ seizure threshold at baseline): >1 mg/kg
potency relative to KRM-II-81 and KRM-II-82 (PTZ seizure threshold; PTZ seizure threshold, rats): about 10 times
PTZ Threshold Poteny (MED) (PTZ seizure threshold; lowest dose with statistically significant effect, rats, PTZ i.v.): 1 mg/kg
effect on dose of PTZ required to induce convulsions (PTZ seizure threshold; rats, PTZ i.v. infusion, pretreatment 30 min): increased the dose of PTZ required to induce convulsions
